We go through four molecules from article PMC4612780, “Divergent Inhibitor Susceptibility among Airway Lumen-Accessible Tryptic Proteases” (PLoS ONE, 2015).

SMILES strings stand for the structures.

Common to all, as to test: chromogenic hydrolysis of QAR, […] nm, initial rates
Common to all, as to assay type: biochemical

Assay [1] has as its target T1, matriptase (Homo sapiens, UniProt Q9Y5Y6).
T1 construct: gene ST14
T1 sequence (Q9Y5Y6 615-855 limits assumed): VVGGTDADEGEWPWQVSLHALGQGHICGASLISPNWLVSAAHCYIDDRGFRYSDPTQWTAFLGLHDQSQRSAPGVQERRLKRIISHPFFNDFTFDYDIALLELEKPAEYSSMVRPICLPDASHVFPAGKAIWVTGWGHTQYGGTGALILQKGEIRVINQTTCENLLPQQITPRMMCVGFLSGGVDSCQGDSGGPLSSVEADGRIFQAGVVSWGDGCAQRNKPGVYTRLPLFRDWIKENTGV
The conditions noted are these: 1 mM QAR, pH 7.6, 120 mM NaCl, 0.05% Tween 20, 100 ug/ml heparin, 37 C, matriptase 2.4 nM.

Assay [2] deals with T2, β-tryptase; human lung (β) tryptase.
T2 construct: gene TPSAB1; native soluble tetramer from human lung (EMD-Millipore)
The conditions noted are these: 1 mM QAR, pH 7.6, 120 mM NaCl, 0.05% Tween 20, 100 ug/ml heparin, 37 C, tryptase 0.70 nM.

Assay [3] concerns the target T3, prostasin (Homo sapiens, UniProt Q16651).
T3 construct: gene PRSS8; recombinant soluble catalytic domain (R&D Systems)
The conditions noted are these: 1 mM QAR, pH 7.6, 120 mM NaCl, 0.05% Tween 20, 100 ug/ml heparin, 37 C, prostasin 80 nM.

In assay [4] the target is T4, HAT; airway trypsin-like protease (Homo sapiens, UniProt O60235).
T4 construct: gene TMPRSS11D; recombinant soluble catalytic domain (R&D Systems)
The conditions noted are these: 1 mM QAR, pH 7.6, 120 mM NaCl, 0.05% Tween 20, 100 ug/ml heparin, 37 C, HAT 0.72 nM.

The target of assay [5] is T1, matriptase. The settings on record: 1 mM QAR, pH 7.6, 120 mM NaCl, 0.05% Tween 20, 100 ug/ml heparin, 37 C; matriptase 2.4 nM; unreliable (beyond tested range 0.24-1200 uM).
Assay [6] addresses T4, HAT; airway trypsin-like protease. The conditions noted are these: 1 mM QAR, pH 7.6, 120 mM NaCl, 0.05% Tween 20, 100 ug/ml heparin, 37 C; HAT 0.72 nM; unreliable (beyond tested range 1.6-20 uM).

T4 sequence (O60235 187-418 limits assumed): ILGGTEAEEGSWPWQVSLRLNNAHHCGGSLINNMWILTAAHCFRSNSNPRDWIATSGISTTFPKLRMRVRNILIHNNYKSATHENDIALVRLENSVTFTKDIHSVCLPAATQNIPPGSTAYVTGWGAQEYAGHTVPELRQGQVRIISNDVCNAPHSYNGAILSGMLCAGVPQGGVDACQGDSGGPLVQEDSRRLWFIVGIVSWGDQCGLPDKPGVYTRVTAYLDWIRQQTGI
T3 sequence (Q16651 33-322 limits assumed): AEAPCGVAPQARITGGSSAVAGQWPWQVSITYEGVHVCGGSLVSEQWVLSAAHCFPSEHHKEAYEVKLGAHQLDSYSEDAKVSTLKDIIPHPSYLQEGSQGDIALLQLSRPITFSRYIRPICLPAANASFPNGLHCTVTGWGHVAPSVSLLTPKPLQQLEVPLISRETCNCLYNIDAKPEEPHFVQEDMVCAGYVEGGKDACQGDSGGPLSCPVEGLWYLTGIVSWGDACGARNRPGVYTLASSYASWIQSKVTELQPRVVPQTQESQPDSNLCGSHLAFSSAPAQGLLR

For `CN(C)C(=O)COC(=O)Cc1ccc(OC(=O)c2ccc(NC(=N)N)cc2)cc1` [camostat], the Matriptase in assay [1] (covalent (acyl intermediate)) was 96 [80, 115] [inhibitor]/[enzyme] ratio (dimensionless). In addition, in assay [2] (covalent (acyl intermediate)), the Tryptase is 5.2 [3.7, 7.2] [inhibitor]/[enzyme] ratio (dimensionless). In addition, in assay [3] (covalent (acyl intermediate)), the Prostasin is 14 [7.7, 25] [inhibitor]/[enzyme] ratio (dimensionless). Also, the HAT in assay [4] (covalent (acyl intermediate)) was 20 [16, 24] [inhibitor]/[enzyme] ratio (dimensionless).

Take `N=C(N)c1ccc2[nH]c(Cc3nc4ccc(C(=N)N)cc4[nH]3)nc2c1` [BABIM, bis(5-amidino-2-benzimidazolyl)methane]: the Matriptase in assay [1] was 0.98 [0.87, 1.11] [inhibitor]/[enzyme] ratio (dimensionless). The Tryptase in assay [2] was 108 [78, 149] [inhibitor]/[enzyme] ratio (dimensionless). Moreover, the HAT in assay [4] (brackets 95% CI) is 71 [48, 105] [inhibitor]/[enzyme] ratio (dimensionless).

`N=C(N)c1ccccc1` [benzamidine]: the Tryptase in assay [2] was 4.7e4 [3.4e4, 6.5e4] [inhibitor]/[enzyme] ratio (dimensionless). In assay [5], the Matriptase is 1.1e6 [9.4e5, 1.2e6] [inhibitor]/[enzyme] ratio (dimensionless). In assay [6], the HAT is 1.4e6 [2.0e5, 9.6e6] [inhibitor]/[enzyme] ratio (dimensionless).

Consider `N=C(N)Nc1ccc(C(=O)Oc2ccc3cc(C(=N)N)ccc3c2)cc1` [nafamostat], for which the Tryptase in assay [2] (covalent, suicide substrate, near-stoichiometric) is 0.44 [0.29, 0.67] [inhibitor]/[enzyme] ratio (dimensionless). Further, the Prostasin in assay [3] is 11 [5.6, 20] [inhibitor]/[enzyme] ratio (dimensionless). Moreover, the HAT in assay [4] was 191 [154, 239] [inhibitor]/[enzyme] ratio (dimensionless).
